In ChEMBL document CHEMBL2062461 (Eur J Med Chem, 2012):

What was measured:
[1] = target: T1, Acetylcholinesterase (Homo sapiens, UniProt P22303)
Description: Inhibition of human recombinant AChE using acetylthiocholine substrate preincubated for 5 mins before substrate addition by Ellman's method

[2] = target: Cholinesterase (Homo sapiens, UniProt P06276)
Description: Inhibition of human plasmatic BChE using butylthiocholne substrate preincubated for 5 mins before substrate addition by Ellman's method

[3] = target: T1, Acetylcholinesterase; remark: listed apart in the source
Description: Inhibition of human recombinant AChE assessed as dissociation constant for enzyme-inhibitor complex using acetylthiocholine substrate preincubated for 5 mins before substrate addition by Ellman's method

[4] = target: T1, Acetylcholinesterase; remark: listed apart in the source
Description: Inhibition of human recombinant AChE assessed as dissociation constant for enzyme-inhibitor-substrate complex using acetylthiocholine substrate preincubated for 5 mins before substrate addition by Ellman's method

T1 sequence (P22303 whole entry): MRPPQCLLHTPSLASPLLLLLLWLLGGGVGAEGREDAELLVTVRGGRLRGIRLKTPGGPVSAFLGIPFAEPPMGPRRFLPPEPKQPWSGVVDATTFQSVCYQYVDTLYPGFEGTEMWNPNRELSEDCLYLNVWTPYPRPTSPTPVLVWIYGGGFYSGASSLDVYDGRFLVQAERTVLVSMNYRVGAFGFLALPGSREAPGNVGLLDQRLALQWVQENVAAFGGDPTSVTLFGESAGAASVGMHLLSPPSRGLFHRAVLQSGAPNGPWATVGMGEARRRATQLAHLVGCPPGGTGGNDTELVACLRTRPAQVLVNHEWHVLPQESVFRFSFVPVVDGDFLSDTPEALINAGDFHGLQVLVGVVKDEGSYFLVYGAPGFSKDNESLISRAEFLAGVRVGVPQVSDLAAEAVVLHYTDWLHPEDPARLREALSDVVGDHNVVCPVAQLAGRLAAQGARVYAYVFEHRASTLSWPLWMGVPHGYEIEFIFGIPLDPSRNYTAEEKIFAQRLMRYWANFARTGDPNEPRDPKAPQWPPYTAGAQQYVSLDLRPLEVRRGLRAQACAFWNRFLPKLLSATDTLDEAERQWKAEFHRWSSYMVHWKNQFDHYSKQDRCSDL
Cholinesterase, sequence (P06276 whole entry): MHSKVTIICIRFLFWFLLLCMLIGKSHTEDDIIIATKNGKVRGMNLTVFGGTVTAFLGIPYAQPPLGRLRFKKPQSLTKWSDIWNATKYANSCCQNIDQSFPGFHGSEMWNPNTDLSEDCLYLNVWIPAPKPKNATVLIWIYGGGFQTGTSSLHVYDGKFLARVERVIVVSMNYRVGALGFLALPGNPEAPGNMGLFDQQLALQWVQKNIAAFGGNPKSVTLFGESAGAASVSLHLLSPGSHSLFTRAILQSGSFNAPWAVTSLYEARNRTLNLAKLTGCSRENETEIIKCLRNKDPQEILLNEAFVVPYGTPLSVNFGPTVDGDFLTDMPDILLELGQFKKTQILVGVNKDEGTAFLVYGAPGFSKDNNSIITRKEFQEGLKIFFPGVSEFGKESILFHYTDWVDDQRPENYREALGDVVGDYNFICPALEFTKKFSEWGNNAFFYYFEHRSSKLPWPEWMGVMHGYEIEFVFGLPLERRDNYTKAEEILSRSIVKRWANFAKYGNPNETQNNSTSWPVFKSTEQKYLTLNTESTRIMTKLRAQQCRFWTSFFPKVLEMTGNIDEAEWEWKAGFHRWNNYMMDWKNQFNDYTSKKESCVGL

SMILES	IC50 [1] [nM]	IC50 [2] [nM]	Ki [3] [nM]	Ki [4] [nM]
O=C(CCN1CCCCC1)N1CCN(CCNc2c3c(nc4ccccc24)CCCC3)CC1	51.7	77.8	16.8	76.1
CN(CCC(=O)N1CCN(CCNc2c3c(nc4ccccc24)CCCC3)CC1)C1CCCCC1	14.9	63.7	0.38	0.318
CCN(CCC(=O)N1CCN(CCNc2c3c(nc4ccccc24)CCCC3)CC1)C1CCCCC1	4.97	41.2	1.35	3.73
CN(CCC(=O)N1CCN(CCNc2c3c(nc4ccccc24)CCCC3)CC1)c1ccccc1	70.3	33.7	13.7	85.5
CN(CCCN1CCN(CCNc2c3c(nc4ccccc24)CCCC3)CC1)C1CCCCC1	40.7	137	10.3	47.6
CCN(CCCN1CCN(CCNc2c3c(nc4ccccc24)CCCC3)CC1)C1CCCCC1	194	126		
CN(CCCN1CCN(CCNc2c3c(nc4ccccc24)CCCC3)CC1)c1ccccc1	84.8	211	80	24.7
O=C(CCNCCNc1c2c(nc3ccccc13)CCCC2)N1CCN(CCNc2c3c(nc4ccccc24)CCCC3)CC1	4.49	1520		
